The text below walks through data of patent US7192925B2, “Scorpion peptide as hypotensive agent” (Universidade Federal de Minas Gerais, priority 2002, dated 2007).

“Also recorded” adds a separate entry of the source.

Assay [1] has as its system hypotensive effect of bradykinin (average arterial pressure) in Wistar rats. The experiment in a line: Bradykinin potentiation in vivo: hypotensive effect of bradykinin re-evaluated after TsHpt-I injection. More on the design: species or system rat. On the procedure: (§1) Wistar rats, weighting 300±20 g were used, waked or anesthetized, to assess the hypotensive properties of peptides. Bradykinin (Bachem, Co) and TsHpt-I were dissolved in sterile isotonic saline (0.9% NaCl) immediately before use.
(§2) “In vivo” experiments using waked animals: a day before the experiment, rats were anesthetized with ether and a polyethylene catheter (PE-10 connected to PE-50) was inserted into the abdominal aorta through the femoral artery for blood pressure measurements. For intravenous injections, a polyethylene cannula was implanted into the femoral vein. Arterial blood pressure and heart rate were monitored by a solid-state strain-gauge transducer. All variables were recorded continuously on a computer through a data acquisition system, Biopac®, and processed by the Acknowledge® software.
(§3) Bradykinin, 1 μg or 2 μg, was injected and the response measured as variation on average arterial pressure. Hypotensive effect of TsHpt-I (10 μg) alone was measured after Bradykinin. The hypotensive effect of bradykinin (1 μg) was then re-evaluated after 5 and 10 minutes following the injection of TsHpt-I.
“In vivo” experiments using anesthetized rats: the arterial blood pressure and heart rate were monitored continuously after insertion of catheters as described above. Rats were previously anesthetized with urethane, 1.2 mg/kg, (via i.p.).
The hypotensive effect of intravenous injections of bradykinin, 1 μg or 2 μg was measured, followed by the measurement of hypotensive effect of TsHpt-I (10 μg). The hypotensive effect of the bradykinin (1 μg) was then re-evaluated after 1, 5, 10, 15, 20 and 30 minutes.
The potentiating unit—i.e., the amount of peptide that is able to double the activity of a single dose of bradykinin—of TsHpt-I was 10 μg. At this dose TsHpt-I was able to double the activity of a single dose of bradykinin for almost 20 minutes in anesthetized animals.

Assay [2] concerns arterial blood pressure of Wistar rats. The experiment in a line: Hypotensive activity of the peptide in biological assays on rats. The format is in vivo, rat. Conditions: native and synthetic peptide. As for the experimental part: as §1, §2, §3
“In vivo” experiments using anesthetized rats: the arterial blood pressure and heart rate were monitored continuously after insertion of catheters as described above. Rats were previously anesthetized with urethane, […], (via i.p.). […]

“TsHpt-I (AEIDFSGIPEDIIKQIKETNAKPPA; listed as Tityus serrulatus)”: the “time for which TsHpt-I was able to double the activity of a single dose of bradykinin” value in assay [1] (TsHpt-I 10 μg, anesthetized animals (urethane)) is about 20 min. In assay [1] (rat, in vivo), the “potentiation of bradykinin effects (in words)” value is “able to potentiate bradykinin effects in a strong and long-lasting manner”. The “potentiating unit (amount of peptide that is able to double the activity of a single dose of bradykinin)” value in assay [1] (waked and anesthetized rats, intravenous injection, bradykinin 1 μg) was found to be 10 µg. The “hypotensive activity / ability to decrease blood pressure (in words)” value in assay [2] was “strong ability to decrease blood pressure; also recorded: same hypotensive activity as the native molecule”.
